Consider 32 molecules from patent US20250145633A1, “SUBSTITUTED FURANOPYRIMIDINE COMPOUNDS AS PDE1 INHIBITORS” (Dart NeuroScience, LLC, priority 2017, published 2025).

Bounds are passed on as bounds.

In the assay the target is human PDE1B enzyme (Homo sapiens (Human), UniProt Q01064). The assay can be described thus: IMAP TR-FRET PDE1B enzymatic assay. It is filed as biochemical. Particulars: negative log of half-maximal molar inhibitory concentration, 200 nM FAM-cAMP, values given as bins; for IC50: read-out: PDE1b (pIC50) (converted). The essentials: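 Full-length GST-tagged human PDE1B (250 pg/well) in IMAP BSA buffer with 10 U/ml calmodulin and 2.5 mM CaCl2; compound pre-incubated 5 min at room temperature, then 200 nM (final) FAM-cAMP for 30 min. IMAP binding reagent/Tb added, 1 h; TR-FRET 520/490 ratio read. IC50 from sigmoidal dose-response fit.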

On to `Cc1oc2ncnc(NC3(C)CC3)c2c1C(=O)NCc1nc2cc(F)ccc2n1C` [Example 733, N-[(5-Fluoro-1-methyl-1H-1,3-benzodiazol-2-yl)methyl]-6-methyl-4-[(1-methylcyclopropyl)amino]furo[2,3-d]pyrimidine-5-carboxamide], for which the IC50 was 10 to 100 nM.
The same measure, in the same setting: in the case of `Cc1oc2ncnc(NC3(C)CC3)c2c1C(=O)NCCc1nc2cc(F)ccc2n1C` [Example 734, N-[2-(5-Fluoro-1-methyl-1H-1,3-benzodiazol-2-yl)ethyl]-6-methyl-4-[(1-methylcyclopropyl)amino]furo[2,3-d]pyrimidine-5-carboxamide] it was 10 to 100 nM.
Consider `Cc1oc2ncnc(NC3(C)CC3)c2c1C(=O)Nc1ccc(C2CCOCC2)nc1` [Example 735, 6-Methyl-4-[(1-methylcyclopropyl)amino]-N-[6-(oxan-4-yl)pyridin-3-yl]furo[2,3-d]pyrimidine-5-carboxamide], for which the IC50 was 100 to 1000 nM.
Same read-out and setting: in the case of `Cc1oc2ncnc(NC3(C)CC3)c2c1C(=O)Nc1cnc(C2CCOCC2)cn1` [Example 736, 6-Methyl-4-[(1-methylcyclopropyl)amino]-N-[5-(oxan-4-yl)pyrazin-2-yl]furo[2,3-d]pyrimidine-5-carboxamide] it was 10 to 100 nM; in that of `Cc1oc2ncnc(NC3(C)CC3)c2c1C(=O)NCc1cccc(N2CCOCC2)n1` [Example 737, 6-Methyl-4-[(1-methylcyclopropyl)amino]-N-{[6-(morpholin-4-yl)pyridin-2-yl]methyl}furo[2,3-d]pyrimidine-5-carboxamide], 10 to 100 nM; in that of `Cc1oc2ncnc(NC3(C)CC3)c2c1C(=O)NCc1nnn(C)n1` [Example 738, 6-Methyl-N-[(2-methyl-2H-1,2,3,4-tetrazol-5-yl)methyl]-4-[(1-methylcyclopropyl)amino]furo[2,3-d]pyrimidine-5-carboxamide], 10 to 100 nM.
Still for that read-out and setting: the same measure for `Cc1oc2ncnc(NC3(C)CC3)c2c1C(=O)NCc1csc(N2CCOCC2)n1` [Example 739, 6-Methyl-4-[(1-methylcyclopropyl)amino]-N-{[2-(morpholin-4-yl)-1,3-thiazol-4-yl]methyl}furo[2,3-d]pyrimidine-5-carboxamide]: 10 to 100 nM.
On the same count and under the same terms, the same measure for `Cc1oc2ncnc(NC3(C)CC3)c2c1C(=O)NCc1cnn(C)n1` [Example 740, 6-Methyl-N-[(2-methyl-2H-1,2,3-triazol-4-yl)methyl]-4-[(1-methylcyclopropyl)amino]furo[2,3-d]pyrimidine-5-carboxamide]: 10 to 100 nM; for `Cc1oc2ncnc(NC3(C)CC3)c2c1C(=O)NCc1ncn(C)n1` [Example 741, 6-Methyl-N-[(1-methyl-1H-1,2,4-triazol-3-yl)methyl]-4-[(1-methylcyclopropyl)amino]furo[2,3-d]pyrimidine-5-carboxamide]: 10 to 100 nM; for `Cc1oc2ncnc(NC3(C)CC3)c2c1C(=O)N1Cc2cc(Br)cnc2C1` [Example 742, 5-{3-Bromo-5H,6H,7H-pyrrolo[3,4-b]pyridine-6-carbonyl}-6-methyl-N-(1-methylcyclopropyl)furo[2,3-d]pyrimidin-4-amine]: 10 to 100 nM.
As to `Cc1ncc(CNC(=O)c2c(C)oc3ncnc(NC4(C)CC4)c23)s1` [Example 743, 6-Methyl-N-[(2-methyl-1,3-thiazol-5-yl)methyl]-4-[(1-methylcyclopropyl)amino]furo[2,3-d]pyrimidine-5-carboxamide], the “PDE1b (pIC50)” value is given as greater than 8.
Take `Cc1ncc(CNC(=O)c2c(C)oc3ncnc(NC4(C)CC4)c23)o1` [Example 744, 6-Methyl-N-[(2-methyl-1,3-oxazol-5-yl)methyl]-4-[(1-methylcyclopropyl)amino]furo[2,3-d]pyrimidine-5-carboxamide]: the IC50 was 10 to 100 nM.
On the same count and under the same terms, in the case of `Cc1oc2ncnc(NC3(C)CC3)c2c1C(=O)NCc1ccc(N2CCOCC2)nn1` [Example 745, 6-Methyl-4-[(1-methylcyclopropyl)amino]-N-{[6-(morpholin-4-yl)pyridazin-3-yl]methyl}furo[2,3-d]pyrimidine-5-carboxamide] it was 10 to 100 nM; in that of `Cc1oc2ncnc(NC3(C)CC3)c2c1C(=O)NCC1CC1` [Example 746, N-(Cyclopropylmethyl)-6-methyl-4-[(1-methylcyclopropyl)amino]furo[2,3-d]pyrimidine-5-carboxamide], 10 to 100 nM.
The same measure, in the same setting: in the case of `Cc1nc(CNC(=O)c2c(C)oc3ncnc(NC4(C)CC4)c23)co1` [Example 747, 6-Methyl-N-[(2-methyl-1,3-oxazol-4-yl)methyl]-4-[(1-methylcyclopropyl)amino]furo[2,3-d]pyrimidine-5-carboxamide] it was 10 to 100 nM; in that of `Cc1oc2ncnc(NC3(C)CC3)c2c1C(=O)N1Cc2cc(C3CCOCC3)cnc2C1` [Example 748, 6-Methyl-N-(1-methylcyclopropyl)-5-[3-(oxan-4-yl)-5H,6H,7H-pyrrolo[3,4-b]pyridine-6-carbonyl]furo[2,3-d]pyrimidin-4-amine], 100 to 1000 nM.
Same read-out and setting: the same measure for `Cc1oc2ncnc(NC3(C)CC3)c2c1C(=O)NC(C)c1ncco1` (centres unmarked) [Example 749, 6-Methyl-4-[(1-methylcyclopropyl)amino]-N-[1-(1,3-oxazol-2-yl)ethyl]furo[2,3-d]pyrimidine-5-carboxamide]: 100 to 1000 nM.
`Cc1oc2ncnc(NC3(C)CC3)c2c1C(=O)NC(C)c1ccon1` (centres unmarked) [Example 750, 6-Methyl-4-[(1-methylcyclopropyl)amino]-N-[1-(1,2-oxazol-3-yl)ethyl]furo[2,3-d]pyrimidine-5-carboxamide]: the IC50 was 10 to 100 nM.
In the case of `Cc1oc2ncnc(NC3(C)CC3)c2c1C(=O)NCc1nc2cc(F)ccc2o1` [Example 751, N-[(5-Fluoro-1,3-benzoxazol-2-yl)methyl]-6-methyl-4-[(1-methylcyclopropyl)amino]furo[2,3-d]pyrimidine-5-carboxamide], the “PDE1b (pIC50)” value is listed as greater than 8.
Same read-out and setting: the same measure for `Cc1oc2ncnc(NC3(C)CC3)c2c1C(=O)NCCCN1CCCC1` [Example 752, 6-Methyl-4-[(1-methylcyclopropyl)amino]-N-[3-(pyrrolidin-1-yl)propyl]furo[2,3-d]pyrimidine-5-carboxamide]: less than 6.
As for `Cc1oc2ncnc(NC3(C)CC3)c2c1C(=O)Nc1ccc(N2CCOCC2)nc1` [Example 753, 6-Methyl-4-[(1-methylcyclopropyl)amino]-N-[6-(morpholin-4-yl)pyridin-3-yl]furo[2,3-d]pyrimidine-5-carboxamide], the IC50 is 100 to 1000 nM.
Same read-out and setting: the same measure for `Cc1oc2ncnc(NC3(C)CC3)c2c1C(=O)NCCC(F)(F)F` [Example 754, 6-Methyl-4-[(1-methylcyclopropyl)amino]-N-(3,3,3-trifluoropropyl)furo[2,3-d]pyrimidine-5-carboxamide]: 10 to 100 nM.
Same read-out and setting: the same measure for `Cc1oc2ncnc(NC3(C)CC3)c2c1C(=O)NCC1CC1(F)F` (centres unmarked) [Example 755, N-[(2,2-Difluorocyclopropyl)methyl]-6-methyl-4-[(1-methylcyclopropyl)amino]furo[2,3-d]pyrimidine-5-carboxamide]: 10 to 100 nM; for `Cc1oc2ncnc(NC3(C)CC3)c2c1C(=O)NCCN=S(C)(C)=O` [Example 756, N-(2-{[Dimethyl(oxo)-λ^6-sulfanylidene]amino}ethyl)-6-methyl-4-[(1-methylcyclopropyl)amino]furo[2,3-d]pyrimidine-5-carboxamide]: 100 to 1000 nM; for `Cc1oc2ncnc(NC3(C)CC3)c2c1C(=O)Nc1cnc(N2C[C@@H](C)O[C@@H](C)C2)nc1` [Example 759, N-{2-[(2R,6S)-2,6-Dimethylmorpholin-4-yl]pyrimidin-5-yl}-6-methyl-4-[(1-methylcyclopropyl)amino]furo[2,3-d]pyrimidine-5-carboxamide]: 100 to 1000 nM.
Same read-out and setting: the same measure for `Cc1coc(CNC(=O)c2c(C)oc3ncnc(NC4(C)CC4)c23)n1` [Example 760, 6-Methyl-N-[(4-methyl-1,3-oxazol-2-yl)methyl]-4-[(1-methylcyclopropyl)amino]furo[2,3-d]pyrimidin-5-carboxamide]: 10 to 100 nM; for `Cc1oc2ncnc(NC3(C)CC3)c2c1C(N)=O` [Example 761, 6-Methyl-4-[(1-methylcyclopropyl)amino]furo[2,3-d]pyrimidin-5-carboxamide]: 100 to 1000 nM.
Turning to `Cc1oc2ncnc(NC3(C)CC3)c2c1C(=O)N1CCc2c(ncnc2NC(C)C)C1` [Example 762, 6-Methyl-N-(1-methylcyclopropyl)-5-f{4-[(propan-2-yl)amino]-5H,6H,7H,8H-pyrido[3,4-d]pyrimidine-7-carbonyl}furo[2,3-d]pyrimidin-4-amine], the “PDE1b (pIC50)” value is given as greater than 8.
The same measure, in the same setting: the same measure for `Cc1oc2ncnc(NC3(C)CC3)c2c1C(=O)N1CCc2c(OCF)ccnc2C1` [Example 763, 5-[4-(Fluoromethoxy)-5,6,7,8-tetrahydro-1,7-naphthyridine-7-carbonyl]-6-methyl-N-(1-methylcyclopropyl)furo[2,3-d]pyrimidin-4-amine]: greater than 8; for `Cc1oc2ncnc(NC3(C)CC3)c2c1C(=O)N1CCc2c(cccc2OCF)C1` [Example 764, 5-[5-(Fluoromethoxy)-1,2,3,4-tetrahydroisoquinoline-2-carbonyl]-6-methyl-N-(1-methylcyclopropyl)furo[2,3-d]pyrimidin-4-amine]: greater than 8; for `Cc1oc2ncnc(NC3(C)CC3)c2c1C(=O)N1CCc2cc(OCF)ccc2C1` [Example 765, 5-[6-(Fluoromethoxy)-1,2,3,4-tetrahydroisoquinoline-2-carbonyl]-6-methyl-N-(1-methylcyclopropyl)furo[2,3-d]pyrimidin-4-amine]: greater than 8.
With `Cc1oc2ncnc(NC3(C)CC3)c2c1C(=O)N1CCc2cccc(OCF)c2C1` [Example 766, 5-[8-(Fluoromethoxy)-1,2,3,4-tetrahydroisoquinoline-2-carbonyl]-6-methyl-N-(1-methylcyclopropyl)furo[2,3-d]pyrimidin-4-amine], the IC50 was 10 to 100 nM.
